Laboratory results reported in article PMC6270614 (Molecules, 2013).
Where two headings read alike, the source gives them in different places.

Tests used:
[1] = target: human cannabinoid CB1 receptor (Homo sapiens, UniProt P21554); experiment: CB1 receptor radioligand ([3H]CP-55,940) displacement binding assay; conditions: for inhibition at 1 µM: read-out: displacement of [3H]CP-55,940 in the preliminary screen (printed in the CB1 Ki column)
Method: In all cases, Ki values were calculated by applying the Cheng-Prusoff equation [34] to the IC50 values (obtained by GraphPad, GraphPad Software, Inc., La Jolla, CA, USA) for the displacement of the bound radioligand by increasing concentrations of the test compounds (after three separate experiments for each compound).

[2] = Experimental activity (pIC50, M), CoMFA training and test set input
[3] = CB1 (Ki, nM), displacement of 0.5 nM [3H]CP-55,940, means ± SEM, n = 3, Cheng-Prusoff from IC50
[4] = IC50 (CB1 displacement), displacement of [3H]CP-55,940
[5] = CoMFA training and test set input, read-out: Experimental activity (pIC50) (converted)

Chain of human cannabinoid CB1 receptor (P21554 whole entry): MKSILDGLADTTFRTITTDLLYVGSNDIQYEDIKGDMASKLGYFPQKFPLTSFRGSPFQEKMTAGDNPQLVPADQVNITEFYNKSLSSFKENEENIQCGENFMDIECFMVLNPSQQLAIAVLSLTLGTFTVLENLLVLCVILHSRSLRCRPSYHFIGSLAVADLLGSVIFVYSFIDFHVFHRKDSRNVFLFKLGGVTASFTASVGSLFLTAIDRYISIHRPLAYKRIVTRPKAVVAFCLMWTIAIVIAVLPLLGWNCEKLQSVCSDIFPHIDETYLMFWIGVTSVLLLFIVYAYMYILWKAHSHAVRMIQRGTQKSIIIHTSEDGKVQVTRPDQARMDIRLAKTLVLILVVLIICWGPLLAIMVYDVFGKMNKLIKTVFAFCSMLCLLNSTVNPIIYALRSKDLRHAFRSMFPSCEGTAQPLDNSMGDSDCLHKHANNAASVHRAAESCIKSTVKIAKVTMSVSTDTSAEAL

Structure (SMILES) | inhibition at 1 µM [1] [%] | melting point [°C] | IC50 [1, 2] [nM] | Ki [1, 3] [nM] | further results
O=C(c1cccc2ccccc12)n1c(-c2ccccn2)nc2ccccc21 [Compound 10, Naphthalen-1-yl(2-(pyridin-2-yl)-1H-benzo[d]imidazol-1-yl)methanone] | < 50 | – | – | – | –
O=C(c1cccc2ccccc12)n1c(-c2ccccn2)nc2cc(F)ccc21 [Compound 11, (5-Fluoro-2-(pyridin-2-yl)-1H-benzo[d]imidazol-1-yl)(naphthalen-1-yl)methanone] | < 50 | 167.2 to 167.9 | – | – | –
O=C(c1cccc2ccccc12)n1c(-c2ccccn2)nc2ccc(F)cc21 [Compound 12, (6-Fluoro-2-(pyridin-2-yl)-1H-benzo[d]imidazol-1-yl)(naphthalen-1-yl)methanone] | < 50 | 177.2 to 178 | – | – | –
Cc1cc2nc(-c3ccccn3)n(C(=O)c3cccc4ccccc34)c2cc1C [Compound 13, (5,6-Dimethyl-2-(pyridin-2-yl)-1H-benzo[d]imidazol-1-yl)(naphthalen-1-yl)methanone] | < 50 | 167.2 to 168 | – | – | –
O=C(c1cccc2ccccc12)n1c(-c2cccnc2)nc2ccccc21 [Compound 14, Naphthalen-1-yl-(2-(pyridin-3-yl)-1H-benzo[d]imidazol-1-yl)methanone] | – | 148 to 148.1 | 180 | – | –
O=C(c1cccc2ccccc12)n1c(-c2cccnc2)nc2cc(F)ccc21 [Compound 15, (5-Fluoro-2-(pyridin-3-yl)-1H-benzo[d]imidazol-1-yl)(naphthalen-1-yl)methanone] | – | – | 979 | 534 | –
O=C(c1cccc2ccccc12)n1c(-c2cccnc2)nc2ccc(F)cc21 [Compound 16, (6-Fluoro-2-(pyridin-3-yl)-1H-benzo[d]imidazol-1-yl)(naphthalen-1-yl)methanone] | < 50 | – | – | – | –
Cc1cc2nc(-c3cccnc3)n(C(=O)c3cccc4ccccc34)c2cc1C [Compound 17, (5,6-Dimethyl-2-(pyridin-3-yl)-1H-benzo[d]imidazol-1-yl)(naphthalen-1-yl)methanone] | < 50 | 177.2 to 178 | – | – | –
O=C(c1cccc2ccccc12)n1c(-c2ccncc2)nc2ccccc21 [Compound 18, Naphthalen-1-yl-(2-(pyridin-4-yl)-1H-benzo[d]imidazol-1-yl)methanone] | – | 155 to 156.1 | 69.3 | 37.8 ± 5.3 | –
O=C(c1cccc2ccccc12)n1c(-c2ccncc2)nc2cc(F)ccc21 [Compound 19, (5-Fluoro-2-(pyridin-4-yl)-1H-benzo[d]imidazol-1-yl)(naphthalen-1-yl)methanone] | < 50 | 180.7 to 181.7 | – | – | –
O=C(c1cccc2ccccc12)n1c(-c2ccncc2)nc2ccc(F)cc21 [Compound 20, (6-Fluoro-2-(pyridin-4-yl)-1H-benzo[d]imidazol-1-yl)(naphthalen-1-yl)methanone] | < 50 | 190.4 to 190.9 | – | – | –
Cc1cc2nc(-c3ccncc3)n(C(=O)c3cccc4ccccc34)c2cc1C [Compound 21, (5,6-Dimethyl-2-(pyridin-4-yl)-1H-benzo[d]imidazol-1-yl)(naphthalen-1-yl)methanone] | – | 167.2 to 168 | 7.24 | 3.95 ± 0.8 | IC50 [1, 4]: < 10 nM
O=C(c1ccc2ccccc2c1)n1c(-c2ccccn2)nc2ccccc21 [Compound 22, Naphthalen-2-yl(2-(pyridin-2-yl)-1H-benzo[d]imidazol-1-yl)methanone] | < 50 | 145 to 146 | – | – | –
O=C(c1ccc2ccccc2c1)n1c(-c2ccccn2)nc2ccc(F)cc21 [Compound 23, (6-Fluoro-2-(pyridin-2-yl)-1H-benzo[d]imidazol-1-yl)(naphthalen-2-yl)methanone] | – | – | 20.9 | 11.4 ± 0.9 | IC50 [1, 4]: ~20 nM
Cc1cc2nc(-c3ccccn3)n(C(=O)c3ccc4ccccc4c3)c2cc1C [Compound 24, (5,6-Dimethyl-2-(pyridin-2-yl)-1H-benzo[d]imidazol-1-yl)(naphthalen-2-yl)methanone] | – | 168.7 to 169.6 | 51.5 | 28.1 ± 2.3 | –
O=C(c1ccc2ccccc2c1)n1c(-c2cccnc2)nc2ccccc21 [Compound 25, Naphthalen-2-yl(2-(pyridin-3-yl)-1H-benzo[d]imidazol-1-yl)methanone] | < 50 | 148 to 148.6 | – | – | –
O=C(c1ccc2ccccc2c1)n1c(-c2cccnc2)nc2cc(F)ccc21 [Compound 26, (5-Fluoro-2-(pyridin-3-yl)-1H-benzo[d]imidazol-1-yl)(naphthalen-2-yl)methanone] | – | – | – | – | IC50 [1, 5]: 10400 nM; Ki ([1]; read-out: CB1 (Ki)): 5700 ± 200 nM

Structure (SMILES) | inhibition at 1 µM [1] [%] | melting point [°C] | IC50 [1, 2] [nM] | Ki [1, 3] [nM] | further results
O=C(c1ccc2ccccc2c1)n1c(-c2cccnc2)nc2ccc(F)cc21 [Compound 27, (6-Fluoro-2-(pyridin-3-yl)-1H-benzo[d]imidazol-1-yl)(naphthalen-2-yl)methanone] | – | 167.2 to 167.7 | – | – | IC50 [1, 5]: 1770 nM; Ki ([1]; read-out: CB1 (Ki)): 963 ± 155 nM
Cc1cc2nc(-c3cccnc3)n(C(=O)c3ccc4ccccc4c3)c2cc1C [Compound 28, (5,6-Dimethyl-2-(pyridin-3-yl)-1H-benzo[d]imidazol-1-yl)(naphthalen-2-yl)methanone] | – | 166.7 to 166.9 | 1040 | 567 ± 27.8 | –
O=C(c1ccc2ccccc2c1)n1c(-c2ccncc2)nc2ccccc21 [Compound 29, Naphthalen-2-yl(2-(pyridin-4-yl)-1H-benzo[d]imidazol-1-yl)methanone] | – | 145 to 146.1 | – | – | IC50 [1, 5]: 8220 nM; Ki ([1]; read-out: CB1 (Ki)): 4490 ± 133 nM
O=C(c1ccc2ccccc2c1)n1c(-c2ccncc2)nc2cc(F)ccc21 [Compound 30, (5-Fluoro-2-(pyridin-4-yl)-1H-benzo[d]imidazol-1-yl)(naphthalen-2-yl)methanone] | – | 195.7 to 200.6 | 1880 | 1030 ± 57.9 | –
O=C(c1ccc2ccccc2c1)n1c(-c2ccncc2)nc2ccc(F)cc21 [Compound 31, (6-Fluoro-2-(pyridin-4-yl)-1H-benzo[d]imidazol-1-yl)(naphthalen-2-yl)methanone] | – | – | 10.2 | 5.55 ± 0.9 | IC50 [1, 4]: < 10 nM
Cc1cc2nc(-c3ccncc3)n(C(=O)c3ccc4ccccc4c3)c2cc1C [Compound 32, (5,6-Dimethyl-2-(pyridin-4-yl)-1H-benzo[d]imidazol-1-yl)(naphthalen-2-yl)methanone] | < 50 | 160.4 to 160.9 | – | – | –
c1ccc(-c2nc3ccccc3n2Cc2cccc3ccccc23)nc1 [Compound 33, 1-(Naphthalen-1-ylmethyl)-2-(pyridin-2-yl)-1H-benzo[d]imidazole] | < 50 | 150.7 to 151.6 | – | – | –
Fc1ccc2c(c1)nc(-c1ccccn1)n2Cc1cccc2ccccc12 [Compound 34, 5-Fluoro-1-(naphthalen-1-ylmethyl)-2-(pyridin-2-yl)-1H-benzo[d]imidazole] | < 50 | 155.7 to 155.9 | – | – | –
Fc1ccc2nc(-c3ccccn3)n(Cc3cccc4ccccc34)c2c1 [Compound 35, 6-Fluoro-1-(naphthalen-1-ylmethyl)-2-(pyridin-2-yl)-1H-benzo[d]imidazole] | < 50 | 160.7 to 161.1 | – | – | –
Cc1cc2nc(-c3ccccn3)n(Cc3cccc4ccccc34)c2cc1C [Compound 36, 5,6-Dimethyl-1-(naphthalen-1-ylmethyl)-2-(pyridin-2-yl)-1H-benzo[d]imidazole] | – | 155.5 to 156.1 | 23.9 | 13 ± 1.1 | IC50 [1, 4]: ~20 nM
c1cncc(-c2nc3ccccc3n2Cc2cccc3ccccc23)c1 [Compound 37, 1-(Naphthalen-1-ylmethyl)-2-(pyridin-3-yl)-1H-benzo[d]imidazole] | – | 160.2 to 161.1 | 139 | 75.9 ± 16.6 | –
Fc1ccc2c(c1)nc(-c1cccnc1)n2Cc1cccc2ccccc12 [Compound 38, 5-Fluoro-1-(naphthalen-1-ylmethyl)-2-(pyridin-3-yl)-1H-benzo[d]imidazole] | – | 163.4 to 163.9 | 180 | 98.2 ± 33.5 | –
Fc1ccc2nc(-c3cccnc3)n(Cc3cccc4ccccc34)c2c1 [Compound 39, 6-Fluoro-1-(naphthalen-1-ylmethyl)-2-(pyridin-3-yl)-1H-benzo[d]imidazole] | – | 156.1 to 157 | 0.979 | < 200 | IC50 [1, 4]: < 10 nM; Ki ([1]; read-out: CB1 (Ki), displacement of 0.5 nM [3H]CP-55,940, means ± SEM, n = 3, Cheng-Prusoff from IC50): 0.53 ± 0.9 nM
Cc1cc2nc(-c3cccnc3)n(Cc3cccc4ccccc34)c2cc1C [Compound 40, 5,6-Dimethyl-1-(naphthalen-1-ylmethyl)-2-(pyridin-3-yl)-1H-benzo[d]imidazole] | < 50 | 141.4 to 142.1 | – | – | –
Cc1cc2nc(-c3ccccn3)n(Cc3ccc4ccccc4c3)c2cc1C [Compound 48, 5,6-Dimethyl-1-(naphthalen-2-ylmethyl)-2-(pyridin-2-yl)-1H-benzo[d]imidazole] | – | – | 86.9 | 47.4 ± 11.1 | –
Fc1ccc2nc(-c3cccnc3)n(Cc3ccc4ccccc4c3)c2c1 [Compound 51, 6-Fluoro-1-(naphthalen-2-ylmethyl)-2-(pyridin-3-yl)-1H-benzo[d]imidazole] | – | – | 19.6 | 10.7 ± 2.8 | IC50 [1, 4]: ~20 nM
c1ccc2cc(Cn3c(-c4ccncc4)nc4ccccc43)ccc2c1 [Compound 53, 1-(Naphthalen-2-ylmethyl)-2-(pyridin-4-yl)-1H-benzo[d]imidazole] | – | – | – | – | IC50 [1, 5]: 851 nM; Ki ([1]; read-out: CB1 (Ki)): 464 ± 30.3 nM
